Legend:
[1] = Inhibition of GBA (unknown origin); parameters: species or system Homo sapiens
Heparanase = biological target: T1, Heparanase (Homo sapiens, UniProt Q9Y251); assay: Inhibition of HPSE1 (unknown origin)
T1 sequence (Q9Y251 whole entry): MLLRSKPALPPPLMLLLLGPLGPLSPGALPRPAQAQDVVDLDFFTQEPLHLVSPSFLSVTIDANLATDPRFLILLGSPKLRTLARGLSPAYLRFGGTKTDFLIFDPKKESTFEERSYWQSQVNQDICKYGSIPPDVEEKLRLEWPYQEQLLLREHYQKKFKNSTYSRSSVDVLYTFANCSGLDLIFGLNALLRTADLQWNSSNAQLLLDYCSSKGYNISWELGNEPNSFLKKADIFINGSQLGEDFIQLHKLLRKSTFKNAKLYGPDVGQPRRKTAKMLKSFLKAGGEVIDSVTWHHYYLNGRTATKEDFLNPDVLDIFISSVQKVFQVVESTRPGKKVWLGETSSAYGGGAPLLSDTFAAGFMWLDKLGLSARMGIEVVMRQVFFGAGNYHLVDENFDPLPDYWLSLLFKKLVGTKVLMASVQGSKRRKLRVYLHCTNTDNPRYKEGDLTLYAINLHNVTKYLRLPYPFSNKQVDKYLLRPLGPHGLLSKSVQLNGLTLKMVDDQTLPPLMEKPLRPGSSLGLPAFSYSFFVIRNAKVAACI

Beta-glucuronidase = biological target: T2, Beta-glucuronidase (Homo sapiens, UniProt P08236); assay: Inhibition of GUSbeta (unknown origin)
T2 sequence (P08236 whole entry): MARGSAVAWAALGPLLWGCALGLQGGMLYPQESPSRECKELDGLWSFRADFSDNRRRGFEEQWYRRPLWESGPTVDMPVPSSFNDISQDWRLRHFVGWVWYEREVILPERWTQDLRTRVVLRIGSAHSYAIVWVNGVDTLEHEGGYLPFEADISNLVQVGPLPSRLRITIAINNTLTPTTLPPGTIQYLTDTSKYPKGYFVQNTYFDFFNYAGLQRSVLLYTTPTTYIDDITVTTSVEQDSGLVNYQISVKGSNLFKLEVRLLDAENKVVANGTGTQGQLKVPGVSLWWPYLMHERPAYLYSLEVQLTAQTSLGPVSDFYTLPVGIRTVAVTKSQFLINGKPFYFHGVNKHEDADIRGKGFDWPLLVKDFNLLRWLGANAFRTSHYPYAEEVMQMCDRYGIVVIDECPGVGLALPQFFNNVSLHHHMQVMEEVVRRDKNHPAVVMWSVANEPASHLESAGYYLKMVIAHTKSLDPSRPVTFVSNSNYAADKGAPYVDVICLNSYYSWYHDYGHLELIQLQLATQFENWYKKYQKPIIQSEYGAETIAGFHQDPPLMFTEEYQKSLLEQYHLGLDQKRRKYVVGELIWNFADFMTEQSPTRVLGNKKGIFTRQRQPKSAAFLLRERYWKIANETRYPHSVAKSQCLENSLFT

Row | IC50 [1] [µM] | IC50 (Heparanase) [µM] | IC50 (Beta-glucuronidase) [µM] | SMILES
1 | 0.439 | – | – | CO[C@H]1[C@H](O)[C@@H](O)c2nc(CCc3cccc(Oc4ccccc4)c3)cn2[C@@H]1C(=O)O
2 | 38.6 | 0.621 | 41.8 | CC(C)O[C@H]1[C@H](O)[C@@H](O)c2nc(CCc3cccc(Oc4ccccc4)c3)cn2[C@@H]1C(=O)O
3 | 1.25 | 0.057 | 7.21 | O=C(O)[C@@H]1[C@@H](OCCc2ccccc2)[C@H](O)[C@@H](O)c2nc(CCc3cccc(Oc4ccccc4)c3)cn21
